Test results taken from patent US20150202308A1, “BUDESONIDE FORMULATION” (Nephron Pharmaceuticals Corporation, priority 2014, published 2015).

Assays:
Format in all cases: physicochemical
[1] = Alternative beta-cyclodextrins for complexation with budesonide (% assay); conditions: for % Assay: budesonide inhalation solution 0.188 mg/mL
Experimental: (§1) Preparation of Lab Batches: Tared a clean/dry beaker+stir bar. Weighed and transferred Budesonide and cyclodextrin into the beaker and mixed dry to achieve uniform dispersion. Dissolved with a portion of stock buffer solution to create a saturated ionic phase and mixed for 5-20 minutes. Slowly diluted with the buffer solution and mixed for an additional 5-10 minutes. The pH of the solution was then adjusted with 1M citric acid or 1M NaOH and diluted to the final volume with purified water. While mixing, the solution was sparged with nitrogen for 30 minutes.
Alternative Beta-Cyclodextrins for Complexation: Laboratory batches of budesonide inhalation solution 0.188 mg/mL were prepared in buffer and water according to the procedure described above using 2-hydroxyethyl-B-cyclodextrin and Heptakis 2,6-Di-O-Methyl-B-cyclodextrin.

[2] = Preliminary proof of concept studies of the new complexation process
[3] = Complexation efficiency of budesonide with 2-HY-B-cyclodextrin in buffer vs. water (end point % assay); conditions: for % Assay at T = min. (amount of Budesonide complexed): 3% 2-HY-B-Cyclodextrin; for time to reach 100% complexation: determined from the data
Experimental: as §1
An end point analysis was conducted to evaluate the efficiency of the formulation procedure. Laboratory batches of Budesonide Inhalation Solution were prepared in 3% 2-HY-B-Cyclodextrin and assayed to evaluate the efficiency of the formulation procedure. During the second study, the rate of complexation between Budesonide and 2-HY-B-Cyclodextrin was evaluated in both Buffer and Water.
Six laboratory batches of Budesonide Inhalation Solution were prepared as described above, 3 each in buffer and water. The amount of Budesonide complexed was evaluated at 5 minutes, 8 minutes and 12 minutes for each solvent and compared to the expected concentration at the 100% level.

[4] = Complexation rate in buffer vs. water (filtered slurry, UV-Vis); conditions: excess Budesonide, 2 g 2-HY-B-CD in 12.5 mL concentrated buffer or water; FIG. 1
Experimental: To evaluate the initial association rate of Budesonide with 2-hydroxypropyl-beta-cyclodextrin, excess Budesonide was mixed with 2 g of 2-HY-B-CD in 12.5 mL of concentrated buffer solution or water. 1.0 mL of this slurry was filtered through a 0.2 syringe filter to remove un-complexed Budesonide and evaluated by UV-Vis at 2 minute intervals. A positive control prepared from filtered Budesonide Inhalation Suspension containing 0.25 mg/mL of Budesonide was used to ensure non-interference. […] This is consistent with the particle size distribution of the API which has a small percentage of Budesonide with <0.2 μm particle size diameter. This small amount of Budesonide was determined not to be significant enough to bias the results.

[5] = Minimum concentration of 2-hydroxypropyl-B-cyclodextrin for complexation (assay)
Experimental: Studies were conducted to determine the minimum concentration of 2-Hy-B-cyclodextrin required to achieve 100% budesonide complexation. […] To evaluate if a lower concentration may be used a study was conducted to evaluate if 100% complexation was possible at between 0.5% and 3.0% cyclodextrin. • Complexation efficiency in buffer vs. water: Traditional methods of complexation are usually carried out in water. We conducted studies to evaluate the efficiency of Budesonide-cyclodextrin complexation using a complexation solution of high ionic strength and using purified water. • Alternative Salts or Complexation: The ionic strength of the Buffer solution was calculated to be approximately 508 mol/m^−3. Two alternative salts, Sodium Chloride and Potassium Chloride, and a Phosphate buffer were prepared at the same ionic strength. Laboratory batches of budesonide inhalation solution were prepared using each alternative ionic adjuster to evaluate the effects of various salts on the formulation process. • Alternative Beta-Cyclodextrins for Complexation: […] additional Beta Cyclodextrins, 2-hydroxyethyl-B-cyclodextrin and Heptakis 2,6-Di-O-Methyl-B-cyclodextrin, were evaluated as potential alternatives for complexation with Budesonide.
as §1
Laboratory batches of budesonide inhalation Solution 0.188 mg/mL were prepared to determine the minimum concentration of 2-Hydroxypropyl-B-cyclodextrin required for an effective formulation. Each laboratory batch was prepared as per the procedure described above.

[6] = Filtration study of laboratory batches (assay before and after 0.22 μm filters); conditions: Budesonide with 2-hydroxypropyl-β-cyclodextrin, room temperature
Experimental: In this study 50 mL of 5 separate laboratory batches were filtered through PTFE, PVDF, and PES 0.22 μm filters. In the case that the complexation reaction was not completed, the filtration process would remove the un-complexed budesonide producing a significant difference between the assay values before and after filtration. For each of the lab batches tested, no significant difference between pre and post filter assay values was detected, indicating 100% complexation.

[7] = EDTA and gamma-cyclodextrin effects on formulation stability; conditions: for effect on formulation stability / effect of varying the amount on stability: 90 days at 40° C.; for effect of varying the amount on stability: varied beginning at 0.05%
Experimental: A study was designed to evaluate the effects of EDTA and γ-CD on the formulation stability. Both γ-CD and EDTA were varied beginning at 0.05% and tested at 30 day intervals for 90 days stored at 40° C.

[8] = budesonide at 0.188 mg/mL, in buffer

2-Hydroxyethyl-B-cyclodextrin
% Assay ([1]; 3% cyclodextrin): 66.7%
% Assay ([1]; 6% cyclodextrin): 90.3%
% Assay ([1]; 8% cyclodextrin): 96.4%
efficiency of complexation possible ([1]; within the proposed range of cyclodextrin (3%-8%)): 100%

2-Hydroxypropyl-β-cyclodextrin [HP-β-CD]
percent of HP-β-CD required [2]: < 10%

COCC1OC2OC3C(COC)OC(OC4C(COC)OC(OC5C(COC)OC(OC6C(COC)OC(OC7C(COC)OC(OC8C(COC)OC(OC1C(O)C2OC)C(OC)C8O)C(OC)C7O)C(OC)C6O)C(OC)C5O)C(OC)C4O)C(OC)C3O (stereo not drawn) [2,6-di-o-mehtyl, Heptakis 2,6-Di-O-Methyl-B-cyclodextrin]
efficiency of complexation with available budesonide [1, 8]: 100%
time to 100% efficiency of complexation [1, 8]: 3 to 5 min
% Assay ([1]; 3% cyclodextrin): 101.9%

CCCC1O[C@@H]2C[C@H]3[C@@H]4CCC5=CC(=O)C=C[C@]5(C)[C@H]4[C@@H](O)C[C@]3(C)[C@]2(C(=O)CO)O1 (stereo partly drawn) [Budesonide, 16,17-(butylidenebis(oxy))-11,21-dihydroxy-, (11-β,16-α)-pregna-1,4-diene-3,20-dione]
% Assay at T = min. (amount of Budesonide complexed) ([3]; solvent Buffer, 5 minutes, vs expected concentration at 100% level): 91.1%
% Assay at T = min. (amount of Budesonide complexed) ([3]; solvent Buffer, 8 minutes): 96.3%
% Assay at T = min. (amount of Budesonide complexed) ([3]; solvent Buffer, 12 minutes): 99.7%
% Assay at T = min. (amount of Budesonide complexed) ([3]; solvent Water, 5 minutes): 71.9%
% Assay at T = min. (amount of Budesonide complexed) ([3]; solvent Water, 8 minutes): 78.1%
% Assay at T = min. (amount of Budesonide complexed) ([3]; solvent Water, 12 minutes): 89.7%
increase in the initial complexation efficiency ([3]; batches in concentrated buffer solution over those prepared in water): ~22%
increase in efficiency ([3]; buffer vs. water, from times to 100% complexation): 180%
time to reach 100% complexation ([3]; in buffer): approximately 9 minutes
time to reach 100% complexation ([3]; in water): ~16.2 min
rate of complexation with 2-hydoxypropyl-B-cyclodextrin [4]: much higher rate in buffer than in water
minimum desirable concentration of cyclodextrin to meet the USP monograph [5]: ≥ 3.0%
Assay ([5]; 0.188 mg/mL, 0.5% cyclodextrin, molar ratio 8.4): 75.9%
Assay ([5]; 0.188 mg/mL, 1.0% cyclodextrin, molar ratio 16.8): 85.9%
Assay ([5]; 0.188 mg/mL, 1.5% cyclodextrin, molar ratio 25.2): 91.5%
Assay ([5]; 0.188 mg/mL, 2.0% cyclodextrin, molar ratio 33.6): 95.5%
Assay ([5]; 0.188 mg/mL, 2.5% cyclodextrin, molar ratio 41.9): 95.7%
complexation of Budesonide ([5]; 3.0% 2-Hydroxypropyl-B-cyclodextrin, molar ratio 50.33): 100%
complexation of Budesonide ([5]; 4% (w/v) beta-cyclodextrin, Budesonide at 0.188 mg/mL, stable): 100%
ratio of epimer A (of total content) ([5]; below 3.0% Beta-cyclodextrin, USP criterion 40%-51%): exceeded 51%
Assay ([5]; budesonide inhalation solution 0.188 mg/mL, 3.0% 2-Hydroxypropyl-B-cyclodextrin, molar ratio CD:Budesonide 50.3): 99.4%
time to virtually 100% complexation efficiency [6]: less than 10 minutes
complexation efficiency ([6]; no organic solvents): ~100%

O=C(O)CN(CCN(CC(=O)O)CC(=O)O)CC(=O)O [EDTA]
effect on formulation stability [7]: positive effect on stability
effect on growth of impurity D ([7]; previous studies): helps control the growth of impurity D
effect of varying the amount on stability [7]: no significant effects

OC[C@H]1O[C@@H]2O[C@H]3[C@H](O)[C@@H](O)[C@@H](O[C@H]4[C@H](O)[C@@H](O)[C@@H](O[C@H]5[C@H](O)[C@@H](O)[C@@H](O[C@H]6[C@H](O)[C@@H](O)[C@@H](O[C@H]7[C@H](O)[C@@H](O)[C@@H](O[C@H]8[C@H](O)[C@@H](O)[C@@H](O[C@H]9[C@H](O)[C@@H](O)[C@@H](O[C@H]1[C@H](O)[C@H]2O)O[C@@H]9CO)O[C@@H]8CO)O[C@@H]7CO)O[C@@H]6CO)O[C@@H]5CO)O[C@@H]4CO)O[C@@H]3CO [γ-CD, Gamma-cyclodextrin]
effect on formulation stability [7]: positive effect on stability
effect of varying the amount on stability [7]: no significant effects
